The values that follow come from US20180065917A1, “IMMUNE CHECKPOINT INHIBITORS, COMPOSITIONS AND METHODS THEREOF” (Polaris Pharmaceuticals, Inc., priority 2016, published 2018).

Molecules are shown by their SMILES. Counter-ions that a name gives are not always drawn.

The target in the assay is T1, PD-L1/PD-1 complex formation (Homo sapiens, UniProt Q9NZQ7).
T1 construct: purchased BPS Bioscience
T1 sequence (Q9NZQ7 19-239 limits assumed, one chain of several): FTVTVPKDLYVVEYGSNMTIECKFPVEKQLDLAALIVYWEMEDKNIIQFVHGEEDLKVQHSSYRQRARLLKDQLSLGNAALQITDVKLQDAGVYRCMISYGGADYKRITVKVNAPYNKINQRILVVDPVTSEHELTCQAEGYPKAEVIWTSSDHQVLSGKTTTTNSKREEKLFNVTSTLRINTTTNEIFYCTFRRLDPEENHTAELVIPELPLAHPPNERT
Kind of assay: PD-L1/PD-1 Interaction Assay (ELISA platform). It is filed as binding. The conditions noted are these: human PD-1-Fc coated plates, PD-L1-Fc-biotin 0.1 μg/ml, compounds pre-incubated 2 hours. How it is done: The ability of compounds to block PD-L1/PD-1 complex formation was evaluated using biochemical interaction assay based on the ELISA platform.
EIA/RIA high binding 96-well plates (Costar) were coated with human PD-1-Fc protein diluted in PBS to 0.5 μg/ml overnight at 4° C. The PD-1-Fc coated plates were washed in PBST and blocked in blocking buffer (2% BSA in PBST). Serially diluted compounds were pre-incubated with PD-L1-Fc-biotin (0.1 μg/ml final) for 2 hours on a shaker at room temperature. The PD-1-Fc coated plates were washed with PBST and solutions containing PD-L1 and compounds were added to the plates. The PD-1-Fc coated plates were incubated with PD-L1 and compound solution for 2 hours on a shaker at room temperature. After the incubation unbound PD-L1 was washed away with PBST and plates were incubated with the blocking buffer for 10 minutes. The bound PD-L1-Fc-biotin was detected with streptavidin-HRP and TMB substrate. The plates were read at OD450 nm in a plate reader (i3 from Molecular Devices) and percentages of inhibition of PD-L1/PD-1 complex formation were calculated.
PD-1-Fc protein was made at Polaris and PD-L1-Fc was purchased from BPS Bioscience.
Background: ELISA stands for enzyme-linked immunosorbent assay.
Regarding `Cc1c(COc2ccc(CN3CCCC[C@@H]3C(=O)O)cc2Br)cccc1-c1cccc(COc2ccc(CN3CCCC[C@@H]3C(=O)O)cc2Br)c1C` [Example 2, (2R,2′R)-1,1′-(((((2,2′-dimethyl-[1,1′-biphenyl]-3,3′-diyl)bis(methylene))bis(oxy))bis(3-bromo-4,1-phenylene))bis(methylene))bis(piperidine-2-carboxylic acid)], the IC50 (in general, the point on the concentration scale where inhibition reaches its midpoint) lay in the range of 11 to 100 nM.

Compound `COc1nc(OCc2cccc(-c3cccc(COc4ccc(CNCCNC(C)=O)c(OC)n4)c3C)c2C)ccc1CNCCNC(C)=O` [Example 3, N,N′-(((((((2,2′-Dimethyl-[1,1′-biphenyl]-3,3′-diyl)bis(methylene))bis(oxy))bis(2-methoxypyridine-6,3-diyl))bis(methylene))bis(azanediyl))bis(ethane-2,1-diyl))diacetamide] yielded an IC50 of 11 to 100 nM.

`COC(=O)[C@@H]1CCCCN1Cc1ccc(OCc2cccc(-c3cccc(COc4ccc(CN5CCCC[C@H]5C(=O)OC)cc4Br)c3C)c2C)c(Br)c1` [Example 4, Dimethyl 1,1′-(((((2,2′-dimethyl-[1,1′-biphenyl]-3,3′-diyl)bis(methylene))bis(oxy))bis(3-bromo-4,1-phenylene))bis(methylene))(2S,2′S)-bis(piperidine-2-carboxylate)]: the IC50 was > 30000 nM.

As for `Cc1c(COc2ccc(CNCCO)cc2Br)cccc1-c1cccc(COc2ccc(CNCCO)cc2Br)c1C` [Example 5, 2,2′-((((((2,2′-Dimethyl-[1,1′-biphenyl]-3,3′-diyl)bis(methylene))bis(oxy))bis(3-bromo-4,1-phenylene))bis(methylene))bis(azanediyl))bis(ethan-1-ol) di-trifluoroacetic acid salt], the IC50 fell in the range of 0.1 to 10 nM.

As to `Cc1c(COc2ccc(CNC(C)(C)C(=O)O)cc2Br)cccc1-c1cccc(COc2ccc(CNC(C)(C)C(=O)O)cc2Br)c1C` [Example 14, 2,2′-((((((2,2′-Dimethyl-[1,1′-biphenyl]-3,3′-diyl)bis(methylene))bis(oxy))bis(3-bromo-4,1-phenylene))bis(methylene))bis(azanediyl))bis(2-methylpropanoic acid) di-trifluoroacetic acid salt], the IC50 fell in the range of 0.1 to 10 nM.

In turn, `Cc1c(COc2ccc(CN[C@@H](C)C(=O)O)cc2Br)cccc1-c1cccc(COc2ccc(CN[C@@H](C)C(=O)O)cc2Br)c1C` [Example 15, (2S,2′S)-2,2′-((((((2,2′-Dimethyl-[1,1′-biphenyl]-3,3′-diyl)bis(methylene))bis(oxy))bis(3-bromo-4,1-phenylene))bis(methylene))bis(azanediyl))dipropionic acid di-trifluoroacetic acid salt] yielded a half-inhibitory concentration (IC50) of 0.1 to 10 nM.

Regarding `Cc1c(COc2ccc(CN[C@H](C)C(=O)O)cc2Br)cccc1-c1cccc(COc2ccc(CN[C@H](C)C(=O)O)cc2Br)c1C` [Example 16, (2R,2′R)-2,2′-((((((2,2′-Dimethyl-[1,1′-biphenyl]-3,3′-diyl)bis(methylene))bis(oxy))bis(3-bromo-4,1-phenylene))bis(methylene))bis(azanediyl))dipropionic acid di-trifluoroacetic acid salt], the IC50 was 11 to 100 nM.

Compound `Cc1c(COc2ccc(CN[C@H](CO)C(=O)O)cc2Br)cccc1-c1cccc(COc2ccc(CN[C@H](CO)C(=O)O)cc2Br)c1C` [Example 17, (2R,2′R)-2,2′-((((((2,2′-Dimethyl-[1,1′-biphenyl]-3,3′-diyl)bis(methylene))bis(oxy))bis(3-bromo-4,1-phenylene))bis(methylene))bis(azanediyl))bis(3-hydroxypropanoic acid) di-trifluoroacetic acid salt] had a half-maximal inhibitory concentration (IC50) of 0.1 to 10 nM.

Consider `Cc1c(COc2ccc(CN[C@@H](C(=O)O)[C@H](C)O)cc2Br)cccc1-c1cccc(COc2ccc(CN[C@@H](C(=O)O)[C@H](C)O)cc2Br)c1C` [Example 18, (2R,2′R,3S,3′S)-2,2′-((((((2,2′-Dimethyl-[1,1′-biphenyl]-3,3′-diyl)bis(methylene))bis(oxy))bis(3-bromo-4,1-phenylene))bis(methylene))bis(azanediyl))bis(3-hydroxybutanoic acid) di-trifluoroacetic acid salt], for which the IC50 lay within 0.1 to 10 nM.

`Cc1c(COc2ccc(CN3CCCC[C@H]3C(N)=O)cc2Br)cccc1-c1cccc(COc2ccc(CN3CCCC[C@H]3C(N)=O)cc2Br)c1C` [Example 23, (2S,2′S)-1,1′-(((((2,2′-Dimethyl-[1,1′-biphenyl]-3,3′-diyl)bis(methylene))bis(oxy))bis(3-bromo-4,1-phenylene))bis(methylene))bis(piperidine-2-carboxamide)] yielded an IC50 of 1010 to 30000 nM.

In the case of `Cc1c(COc2ccc(CN3CCCC[C@H]3C(=O)NCCO)cc2Br)cccc1-c1cccc(COc2ccc(CN3CCCC[C@H]3C(=O)NCCO)cc2Br)c1C` [Example 24, (2S,2′S)-1,1′-(((((2,2′-Dimethyl-[1,1′-biphenyl]-3,3′-diyl)bis(methylene))bis(oxy))bis(3-bromo-4,1-phenylene))bis(methylene))bis(N-(2-hydroxyethyl)piperidine-2-carboxamide)], the IC50 is 110 to 1000 nM.

On to `Cc1c(COc2ccc(CN3CCCC[C@H]3C(=O)NCCN(C)C)cc2Br)cccc1-c1cccc(COc2ccc(CN3CCCC[C@H]3C(=O)NCCN(C)C)cc2Br)c1C` [Example 25, (2S,2′S)-1,1′-(((((2,2′-Dimethyl-[1,1′-biphenyl]-3,3′-diyl)bis(methylene))bis(oxy))bis(3-bromo-4,1-phenylene))bis(methylene))bis(N-(2-(dimethylamino)ethyl)piperidine-2-carboxamide)], for which the IC50 was 1010 to 30000 nM.

In turn, `C#Cc1cc(CN2CCCC[C@H]2C(=O)O)ccc1OCc1cccc(-c2cccc(COc3ccc(CN4CCCC[C@H]4C(=O)O)cc3C#C)c2C)c1C` [Example 26, (2S,2′S)-1,1′-(((((2,2′-Dimethyl-[1,1′-biphenyl]-3,3′-diyl)bis(methylene))bis(oxy))bis(3-ethynyl-4,1-phenylene))bis(methylene))bis(piperidine-2-carboxylic acid) di-trifluoroacetic acid salt] registered an IC50 of 11 to 100 nM.

As for `CCc1cc(CN2CCCC[C@H]2C(=O)O)ccc1OCc1cccc(-c2cccc(COc3ccc(CN4CCCC[C@H]4C(=O)O)cc3CC)c2C)c1C` [Example 27, (2S,2′S)-1,1′-(((((2,2′-Dimethyl-[1,1′-biphenyl]-3,3′-diyl)bis(methylene))bis(oxy))bis(3-ethyl-4,1-phenylene))bis(methylene))bis(piperidine-2-carboxylic acid) di-trifluoroacetic acid salt], the IC50 lay in the range of 110 to 1000 nM.

Turning to `CSc1cc(CN2CCCC[C@H]2C(=O)O)ccc1OCc1cccc(-c2cccc(COc3ccc(CN4CCCC[C@H]4C(=O)O)cc3SC)c2C)c1C` [Example 28, (2S,2′S)-1,1′-(((((2,2′-Dimethyl-[1,1′-biphenyl]-3,3′-diyl)bis(methylene))bis(oxy))bis(3-(methylthio)-4,1-phenylene))bis(methylene))bis(piperidine-2-carboxylic acid) di-trifluoroacetic acid salt], the IC50 was in the range of 110 to 1000 nM.
